What was measured:
[1] = Fluorescence response to thiophosphonate group (FIG. 8); assay type: biochemical
Description: Moreover, a capability of the sulfonate compound of the present invention as a fluorescent probe for mercapto compounds other than thiol (a compound in which a —SH group is bonded to a carbon atom) was examined. […]

[2] = Fluorescence response to cysteine, quantitativity (FIG. 5); assay type: biochemical; conditions: for detection limit of cysteine: probe 200 μL, HEPES pH 7.4, 37° C., 10 minutes; for inclination of calibration curve, cysteine: up to 1000 pmol
Description: (§1) Quantitativity and the like of each of the compounds 6a and 8a with respect to a mercapto compound were evaluated, by using glutathione (GSH) and cysteine that are kinds of thiol. More specifically, an EtOH solution of the compound 6a (10 mM) was prepared, and it further was diluted by 500-fold with a HEPES buffer solution having a pH of 7.4, thereby preparing a probe solution containing the compound 6a. Next, 200 μL of this probe solution and 10 μL of each of solutions of glutathione or cysteine (dissolved in a HEPES buffer solution having a pH of 7.4) with various concentrations were added into each well of a 96-wellmicroplate, and were allowed to stand still at 37° C. for 10 minutes so as to undergo a reaction. Moreover, a probe solution containing 8a was prepared in the same manner as the preparation of the solution of the compound 6a except using 8a instead of 6a, and this probe solution also was allowed to react with a thiol solution in the same manner as the reaction of the probe solution containing 6a. Then, a fluorescence response of each well was measured after the reaction. The measurement of 6a was conducted at λex=383 nm and λem=500 nm, and the measurement of 8a was conducted at λex=483 nm and λem=515 nm. Herein, λex denotes an excitation wavelength, and λem denotes an emission wavelength.
(§2) FIG. 5A is a graph showing the measurement result of 6a, and FIG. 5B is a graph showing the measurement result of 8a.

[3] = Reaction with other nucleophilic agents instead of thiol; assay type: biochemical; conditions: same conditions as the thiol test
Description: Quantitativity and the like of each of the compounds 6a and 8a with respect to a mercapto compound were evaluated, by using glutathione (GSH) and cysteine that are kinds of thiol. […] Moreover, a probe solution containing 8a was prepared in the same manner as the preparation of the solution of the compound 6a except using 8a instead of 6a, and this probe solution also was allowed to react with a thiol solution in the same manner as the reaction of the probe solution containing 6a. Then, a fluorescence response of each well was measured after the reaction. The measurement of 6a was conducted at λex=383 nm and λem=500 nm, and the measurement of 8a was conducted at λex=483 nm and λem=515 nm. Herein, λex denotes an excitation wavelength, and λem denotes an emission wavelength.

[4] = Responses to the compounds listed in Table 1; assay type: biochemical; conditions: same conditions as Example 1
Description: (§3) Moreover, in other conditions than those of the above-described tests, reactivity of all of the compounds 1a to 1d with H2O2, other various kinds of nucleophilic agents, reducing agents and the like also was tested, respectively. More specifically, fluorescent responses of 1a to 1d with respect to a XO-HPX system, a XO-HPX-SOD system, H2O2, ascorbic acid, 1,4-hydroquinone, propylamine, diethylamine, glucose, esterase, a cytochrome P450 reductase+NADPH system, and a diaphorase+NADH system were measured, respectively. Operational processes thereof will be described below. Firstly, 1a to 1d and the above-described reagents were dissolved in HEPES of 10 mM having a pH of 7.4 so as to prepare solutions, respectively. Next, a 96 wellmicroplate was provided, where any of the solutions of 1a to 1d (25 μM, 170 μL) was poured into each of the wells, and furthermore, 30 μL of a blank solution or 30 μL of the solution of the reagent to be reacted therewith was added thereto. Final concentrations of the solutions in the wells were adjusted so that concentrations of the solutions of 1a to 1d respectively could be 21.3 μM, that of XO could be 13.1 mU/mL, those of HPX, H2O2, ascorbic acid, 1,4-hydroquinone, propylamine, diethylamine, glucose, NADPH and NADH respectively could be 50 μM, that of cytochrome P450 reductase could be 68 mU/mL, that of diaphorase could be 65 mU/mL, and that of esterase could be 0.5 U/mL, respectively. Then, after they reacted in the wells at 37° C. for 10 minutes, fluorescent responses were measured respectively. Fluorescence intensity measurement was conducted by using an ETC-272 Peltier thermostatted single cell holder (trade name) manufactured by JASCO Corporation or a SpectraMax GeminiEM fluorescence plate reader (trade name) manufactured by Molecular Devices Corporation provided with a FP-750 spectrofluorometer (trade name) manufactured by JASCO Corporation, and by setting excitation wavelengths and emission wavelengths so that those of 1a, 1b and 1c respectively could be 485 nm and 515 nm, and those of 1d respectively could be 511 nm and 540 nm.
(§4) The reactivity of each of the compounds 1d, 5a, 6a, 7 and 8a with respect to superoxide and glutathione (GSH) that is a kind of thiol was tested under the same conditions as those of [1-3. Superoxide-selectivity (2)] in Example 1. […] A vertical axis thereof denotes a fluorescence intensity, which is represented in % of control.

[5] = Capability as superoxide-detecting fluorescent probe (reactivity with superoxide); assay type: biochemical; conditions: tested similarly to the compound 1d
Description: Then, by mainly using the compound 1d as a testing compound, the capability thereof as a superoxide-selective fluorescent probe was evaluated, and moreover, a test in a cell system also was conducted. These tests will be described below.
Thus, it is thought that each compound synthesized from a combination of: a phenolic colorant; and a 2,4-dinitrobenzenesulfonyl group, a 4-trifluoromethyl-2-nitrobenzenesulfonyl group or a 4-nitrobenzenesulfonyl group can be used as a superoxide-detecting fluorescent probe similarly. An example of the usage thereof will be shown in Scheme 8 below. Furthermore, it can be expected that a compound for a fluorescent probe having characteristics that are suitable for its application purpose can be designed and developed freely, by designing the compound of the present invention freely within the limitation defined by the general formula (I) and using the fluorescence mechanism developed by the inventors of the present invention, without being limited to the above-described combinations. Examples of the application purpose of the compound of the present invention are varied, including an application to a faintly coloring technique using superoxide.

[6] = Reactivity with superoxide and glutathione (FIG. 4); assay type: biochemical; conditions: same conditions as 1-3 Superoxide-selectivity (2)
Description: as §3, §4

[7] = Fluorescence response to glutathione, quantitativity (FIG. 5); assay type: biochemical; conditions: for detection limit of GSH: probe 200 μL, HEPES pH 7.4, 37° C., 10 minutes; for inclination of calibration curve, GSH: up to 1000 pmol
Description: as §1, §2

[8] = test system: acetyl cholinesterase (AChE); conditions: range from 0.1 μU to 0.5 μU, 37° C., 10 minutes, acetyl thiocholine substrate
Description: Firstly, an EtOH solution of the compound 8a (10 mM) was prepared, and it further was diluted by 500-fold with a HEPES buffer solution having a pH of 7.4, thereby preparing a probe solution containing the compound 8a (20 μM). Whereas, a solution (1 mM) was prepared by dissolving commercially available acetyl thiocholine in a HEPES buffer solution having a pH of 7.4. Moreover, acetyl cholinesterase (AChE) solutions (solutions obtained by dissolving acetyl cholinesterase in a HEPES buffer solution having a pH of 7.4) with various concentrations (activity levels) were prepared.
Next, 200 μL of the probe solution, 10 μL of the acetyl thiocholine solution and 10 μL of each of the acetyl cholinesterase (AChE) solutions with various concentrations (activity levels) were added into each well of a 96-wellmicroplate, and underwent an enzyme reaction at 37° C. for 10 minutes. Immediately after the reaction, a fluorescence response of each well was measured at λex (excitation wavelength) of 483 nm and λem (emission wavelength) of 515 nm.

[9] = test system: thiophosphorylated protein; assay: Fluorescence response to thiophosphorylated protein; assay type: biochemical

For O=c1cc(C(F)(F)F)c2ccc(OS(=O)(=O)c3ccc([N+](=O)[O-])cc3[N+](=O)[O-])cc2o1 [Compound 6a], the “response to thiol group in thiophosphonate group” value ([1]; γ-S-ATP and adenosine monothiophosphate (S-AMP)) was “responded to a thiol group in a so-called thiophosphonate group”, the “detection limit of cysteine” value [2] was 7 pmol and the “inclination of calibration curve, cysteine” value [2] was 0.66 au/pmol. The “fluorescence with other nucleophilic agent instead of thiol” value [3] was “no fluorescence at all”, the “response with respect to each of the compounds listed in Table 1” value [4] was “almost no response” and the “deprotection by superoxide into the corresponding fluorochrome” value [5] was “deprotected by superoxide”. For the same compound, the “selectivity (specificity), superoxide versus glutathione, FIG. 4” value [6] was “excellent mercapto compound-selectivity”, the “detection limit of GSH” value [7] was 7 pmol and the “inclination of calibration curve, GSH” value [7] was 0.37 au/pmol.

With O=C(O)c1ccccc1-c1c2ccc(=O)cc-2oc2cc(OS(=O)(=O)c3ccc([N+](=O)[O-])cc3[N+](=O)[O-])ccc12 [Compound 8a] the “detection limit of γ-S-ATP” value ([1]; probe 20 μM 200 μL, imidazole buffer pH 7.4, 37° C., 180 minutes) was 5 pmol, the “inclination, AChE activity versus fluorescence response” value [8] was 28.8 au/μU and the “detection limit of cysteine” value [2] was 1 pmol. The “inclination of calibration curve, cysteine” value [2] was 4.82 au/pmol, the “fluorescence with other nucleophilic agent instead of thiol” value [3] was “no fluorescence at all” and the “response with respect to each of the compounds listed in Table 1” value [4] was “almost no response”. For the same compound, the “fluorescence responses to thiophosphorylated protein with different introduction degrees of the thiophosphonate group” value [9] was “fluorescence responses corresponding to the respective introduction degrees were obtained”, the “selectivity (specificity), superoxide versus glutathione, FIG. 4” value [6] was “excellent mercapto compound-selectivity” and the “detection limit of GSH” value [7] was 2 pmol. For the same compound, the “inclination of calibration curve, GSH” value [7] was 4.25 au/pmol.

From patent US7465814B2, “Sulfonate compound and fluorescent probe using the same” (priority 2003, dated 2008)
